We go through 3 compounds from ChEMBL document CHEMBL3351953, “Inhibition of the Bacterial Adhesin FimH May Potentially Treat Inflammatory Bowel Diseases (IBD)” (ACS Med Chem Lett, 2014).

Molecules are shown by their SMILES.

The assay in a line: Inhibition of Escherichia coli FimH by competitive binding assay.
Broadly, the Kd is the constant that tells how readily two partners part at equilibrium. `CNC(=O)c1cccc(-c2ccc(O[C@H]3O[C@H](CO)[C@@H](O)[C@H](C(O)[C@H]4O[C@H](CO)[C@@H](O)[C@H](O)[C@@H]4O)[C@@H]3O)cc2)c1` (stereo partly drawn) registered a Kd of 29 nM.

Consider `O=C1NCC(c2ccc(O[C@H]3O[C@H](CO)[C@@H](O)[C@H](C[C@H]4O[C@H](CO)[C@@H](O)[C@H](O)[C@@H]4O)[C@@H]3O)cc2)=C(O)N1`, for which the affinity, expressed as Kd, was 111 nM.

In the case of `CNC(=O)c1ccc(-c2ccc(C)c(O[C@H]3O[C@H](CO)[C@@H](O)[C@H](C[C@H]4O[C@H](CO)[C@@H](O)[C@H](O)[C@@H]4O)[C@@H]3O)c2)cc1`, the Kd worked out at 19 nM.
